Results on two compounds are retold here after patent US9987278B2, “Pharmaceutical composition for treating FLT3 mutation-positive cancer, mutant FLT3 inhibitor and uses thereof” (FUJIFILM Corporation, priority 2014, dated 2018).

Where only a bound is given, the exact number is not on record here.

For assay [1], the system named is 32D FLT3 Y842C cells. The assay is described as follows: Cell growth assay, 32D FLT3 Y842C. In kind it is cell-based. Conditions: Mus musculus, 48 h, FLT3 Y842C, 2 days with compound, read-out: GI50 value for growth of FLT3 protein-expressing 32D cells. The procedure: (§1) After the virus-containing culture supernatant was added to the mouse hematopoietic precursor cell line 32D cells in the presence of 10 μg/mL polybrene, and the cells were cultured in the presence of 0.5 ng/mL mouse IL-3.
(§2) Individual cells were seeded onto a 96-well plate (Becton, Dickinson and Company) at a density of 1000 to 10000 cells/well, and the cell culture was started at 37° C. in the presence of 5% CO2. On the next day, the compound diluted in 3-fold common ratio was added to each well, followed by further culturing for 2 days. Then, in order to evaluate the cell viability, a CellTiter 96 AQueous One SolutionReagent was added to each well according to the Promega Corporation's protocol, followed by culturing for 1 hour. […] In a case where the absorbance is insufficient, the absorbance was measured after performing the culturing for another 1 to 2 hours.

Assay [2] relates to 32D FLT3/FL cells. Put plainly: Cell growth assay, FLT3/FLT3 ligand-coexpressing 32D cell line. In kind it is cell-based. Conditions: Mus musculus, 48 h, FLT3/FL, 2 days with compound, read-out: GI50 value for growth of FLT3 protein-expressing 32D cells. How it is done:
RPMI1640 and DMEM were purchased from Life Technologies or SIGMA. The 32D cells were obtained from RIKEN Bioresource Center, and cultured in the presence of 5% CO2 at 37° C. using an RPMI1640 medium containing 1 ng/mL mouse IL-3, 10% fetal bovine serum (FBS), 100 U/mL penicillin and […] streptomycin. The PLAT-E cells were kindly provided by Dr. Kitamura Toshio of Tokyo University and cultured in a DMEM medium containing 1 μg/mL puromycin, 10 μg/mL blasticidin S, 10% FBS, 100 U/mL penicillin and […] streptomycin. […] A pGEM-T vector, FuGENE6 and CellTiter 96 AQueous One Solution Cell Proliferation Assay were purchased from Promega Corporation.
as §2

Assay [3] deals with 32D FLT3 Y842H cells. Put plainly: Cell growth assay, 32D FLT3 Y842H. The class given is cell-based. Conditions: Mus musculus, 48 h, FLT3 Y842H, 2 days with compound, read-out: GI50 value for growth of FLT3 protein-expressing 32D cells. How it is done:
as §1, §2

Assay [4] deals with FLT3 ITD.Y842H-expressing 32D cells. The assay is described as follows: Cell growth assay, FLT3 ITD.Y842H-expressing 32D cells. In kind it is cell-based. Conditions: Mus musculus, read-out: GI50 value for growth of FLT3 protein-expressing 32D cells. The text has this: (§3) The ITD.Y842C-mutant or ITD.Y842H-mutant FLT3-expressing vector was constructed by introducing Y842C and Y842H mutations into the C-terminal FLAG sequence-added ITD-mutant FLT3 gene inserted into a pGEM-T vector as a template, using the primers shown below and according to the protocol of a QuikChange Site-Directed Mutagenesis Kit (Stratagene Corporation), and then inserting the whole length of the ITD.Y842-mutant FLT3 gene into a pMXs-IP retroviral vector. Introduced mutations were confirmed by sequence analysis.
(§4) The mutant FLT3 pMXs-IP retroviral vectors prepared according to the above-mentioned procedure were introduced into PLAT-E cells by using FuGENE6, followed by culturing for 2 days, and the culture supernatant containing viruses was collected. […]
(§5) Individual cells were seeded onto a 96-well plate (Becton, Dickinson and Company) at a density of 1000 to 10000 cells/well, and the cell culture was started at 37° C. in the presence of 5% CO2. […] Thereafter, the absorbance (OD=492 nm) was measured using an MPR-A4i II microplate reader (Tosoh Corporation). In a case where the absorbance is insufficient, the absorbance was measured after performing the culturing for another 1 to 2 hours. […]

The subject of assay [5] is FLT3 ITD-expressing 32D cells. The assay is described as follows: Cell growth assay, FLT3 ITD-expressing 32D cells. Conditions: Mus musculus, read-out: GI50 value for growth of FLT3 protein-expressing 32D cells. The class given is cell-based.
From the text: The ITD-mutant FLT3-expressing vector was constructed by introducing an ITD-mutant FLT3 gene (clone Mt2) described in Kiyoi H, et al., Leukemia, Vol. 12, pp. 1333 to 1337, 1998 into a pMXs-IP retroviral vector as a sequence having a FLAG sequence added to the C-terminal thereof.
(§6) The mutant FLT3 pMXs-IP retroviral vectors prepared according to the above-mentioned procedure were introduced into PLAT-E cells by using FuGENE6, followed by culturing for 2 days, and the culture supernatant containing viruses was collected. After the virus-containing culture supernatant was added to the mouse hematopoietic precursor cell line 32D cells in the presence of 10 μg/mL polybrene, and the cells were cultured in the presence of 0.5 ng/mL mouse IL-3. […]
as §5

For assay [6], the system named is 32D FLT3 D835Ins cells. Put plainly: Cell growth assay, 32D FLT3 D835Ins. The class given is cell-based. Conditions: Mus musculus, 48 h, FLT3 D835Ins (I836 to leucine and aspartic acid), 2 days with compound, read-out: GI50 value for growth of FLT3 protein-expressing 32D cells. The procedure:
as §1, §2

In assay [7] the test system is FLT3 ITD.D835Y-expressing 32D cells. Put plainly: Cell growth assay, FLT3 ITD.D835Y-expressing 32D cells. In kind it is cell-based. Conditions: Mus musculus, read-out: GI50 value for growth of FLT3 protein-expressing 32D cells.
From the text: The ITD.D835Y-mutant FLT3-expressing vector was constructed by replacing a sequence containing aspartic acid 835 cleaved by Sphl, in the C-terminal FLAG sequence-added ITD-mutant FLT3 gene inserted into a pGEM-T vector, with the corresponding sequence of the C-terminal FLAG sequence-added D835Y-mutant FLT3 gene inserted into a pGEM-T vector, and then inserting the whole length of C-terminal FLAG sequence-added ITD.D835Y-mutant FLT3 sequence into a pMXs-IP retroviral vector.
as §6, §5

Assay [8] relates to 32D FLT3 D835V cells. The assay is described as follows: Cell growth assay, 32D FLT3 D835V. In kind it is cell-based. Conditions: Mus musculus, 48 h, FLT3 D835V, 2 days with compound, read-out: GI50 value for growth of FLT3 protein-expressing 32D cells. The procedure:
as §1, §2

Assay [9] has as its system 32D FLT3 D835Y cells. Put plainly: Cell growth assay, 32D FLT3 D835Y. The class given is cell-based. Conditions: Mus musculus, 48 h, FLT3 D835Y, 2 days with compound, read-out: GI50 value for growth of FLT3 protein-expressing 32D cells. The procedure: as §1, §2
The test system of assay [10] is FLT3 ITD.Y842C-expressing 32D cells. Put plainly: Cell growth assay, FLT3 ITD.Y842C-expressing 32D cells. The class given is cell-based. Conditions: Mus musculus, read-out: GI50 value for growth of FLT3 protein-expressing 32D cells.
From the text: as §3, §4, §5

Assay [11] concerns 32D FLT3 D835E cells. The assay is described as follows: Cell growth assay, 32D FLT3 D835E. In kind it is cell-based. Conditions: Mus musculus, 48 h, FLT3 D835E, 2 days with compound, read-out: GI50 value for growth of FLT3 protein-expressing 32D cells. How it is done:
as §1, §2

The subject of assay [12] is 32D FLT3 D835H cells. Put plainly: Cell growth assay, 32D FLT3 D835H. The class given is cell-based. Conditions: Mus musculus, 48 h, FLT3 D835H, 2 days with compound, read-out: GI50 value for growth of FLT3 protein-expressing 32D cells. How it is done: as §1, §2
The test system of assay [13] is 32D FLT3 D835N cells. Put plainly: Cell growth assay, 32D FLT3 D835N. In kind it is cell-based. Conditions: Mus musculus, 48 h, FLT3 D835N, 2 days with compound, read-out: GI50 value for growth of FLT3 protein-expressing 32D cells. How it is done: as §1, §2
Assay [14] deals with mutant FLT3 protein (FLT3 D835Y) (Homo sapiens (Human), UniProt P36888, D835Y). Put plainly: Mutant FLT3 (FLT3 D835Y) enzyme inhibition assay. The class given is biochemical. Conditions: ATP 15 μmol/L, read-out: IC50 value for an enzymatic activity of a mutant FLT3 protein.

As for `CCCNc1nc(Nc2ccc(C#N)cc2)ncc1C#CCCCNC(=O)[C@H](C)N(C)C(=O)/C=C/CN(C)C` [Compound 38], the GI50 is 1 to 10 nM in assay [1]; 1 to 10 nM in [2]; 1 to 10 nM in assay [3]; < 1 nM in [4]; 1 to 10 nM in assay [5]; 1 to 10 nM in assay [6]. The GI50 is 1 to 10 nM in [7]; < 1 nM in assay [8]; < 1 nM in assay [9]; 1 to 10 nM in assay [10]; 1 to 10 nM in assay [11]; 1 to 10 nM in [12]. Moreover, in assay [13], the GI50 lay within 1 to 10 nM.
With `CCCNc1nc(Nc2cccc(F)c2)ncc1C#C[C@H]1C[C@@H](NC(=O)[C@H](C)N(C)C(=O)/C=C/CN(C)C)C1` [Compound 39], in assay [14], the IC50 was < 1 nM. In addition, the GI50 in assay [1] is 1 to 10 nM; in [2], < 1 nM; in assay [3], 1 to 10 nM; in [6] it was < 1 nM; in assay [8], 1 to 10 nM; in assay [9], 1 to 10 nM. Moreover, the GI50 was < 1 nM in assay [11], 1 to 10 nM in [12] and < 1 nM in assay [13].

Broadly, the GI50 is the concentration at which growth is held to half of that of the control. For orientation: IC50 means the midpoint of a concentration-inhibition curve.
